What was measured:
RhlR = molecular target: T1, RhlR (Pseudomonas aeruginosa, UniProt P54292); assay: E. coli reporter gene primary agonism assay, RhlR; type: cell-based; conditions: compounds at 100 mm; 900 mm BHL = 100%; error ±10%; selected data reproduced from Welsh et al., 2015
T1 construct: expressed in transfected cells; host or cells: E. coli JLD271
Description: (§1) Percent agonism of a given non-native inducer in a given bacterium and QS system receptor is measured with resepct to the maximum level of agonism (activation) by the native ligand of that receptor in the given bacterium. Percent antagonism is measured in competitive assays. The QS system of interest is activated to 100% with added or endogenous native ligand and the % antagonism of the non-native inducer is assessed with respect to 100% activation by the native inducer. The native ligand which induces LasR is OdDHL, which induces RhlR is BHL and which induces PqsR is PQS. As described herein and in cited references, assays for assessment of % agonism or % atangonism may be performed in E. coli systems (heterologous) or in the bacterium of interest, e.g., Pseudomonas. Dependent upon the assay system employed native ligand may be endogenously present or it may be exogenously supplied to the assay system. […] In antagonism assays using the native strains with functional QS systems, e.g., those of P. aeruginosa, endogenous native ligand is made in the system, so no native ligand is added. In native strains having one or more non-functional QS systems (mutant strains), e.g., P. aeruginosa mutants with non-functional QS systems, native ligand is added at about 10-100× the EC50 of the native ligand. In the agonism assay, native ligand is added as a control. Details of the assays are provided herein in Example 9 and in references cited in Example 9.

P. aeruginosa (PAO1) = assay: Pyocyanin assay; type: cell-based, Pseudomonas aeruginosa; conditions: MOPS Glutamate and Glucose media, complete or iron/phosphate depleted, 17 h, 100 μM (compounds 1, 2, 3), 25 μM (compound 4), relative to DMSO
Description: A. Pyocyanin Assay Protocol. The amount of pyocyanin in P. aeruginosa culture supernatants was measured following a reported protocol (O'Loughlin et al., 2013) with modifications. A 10 mL overnight culture of P. aeruginosa PAO1 was grown for 16 h. DMSO stock solutions of test compounds (20 mM) were prepared, and 10 μL or 5 μL aliquots were added to sterile 15 mL borosilicate glass test tubes. An inoculating culture was prepared by diluting the overnight culture 1:100 into freshly prepared assay medium (see above), and 2 mL aliquots of this subculture were added to each test tube (0.5% DMSO, final). The cultures were grown for 17 h, and the final cell density measured by reading OD600. Relative pyocyanin levels were measured by first pelleting 1.5 mL of well-mixed culture at 4,000 g for 10 min, transferring 200 μL of the resulting supernatant to a clear, plastic 96-well microtiter plate, and reading absorbance at 695 nm. Media background absorbance (measured from a “no bacteria” control) was subtracted, the resulting values growth normalized by dividing by the final OD600378, and the data plotted relative to a DMSO-treated positive control. B. Rhamnolipid Assay Protocol. Rhamnolipid was quantified following a reported protocol (Koch et al., 1991) with modifications. Assay cultures were prepared and grown in an identical manner to the pyocyanin assay above. Aliquots of the final culture supernatant (1 mL) were transferred to 1 dram glass vials and extracted twice with 1 mL diethyl ether. The pooled organic fractions were evaporated to dryness, and the resulting residue reconstituted in 200 μL de-ionized water. In a 1.7 mL plastic centrifuge tube, 50 μL of this extract was diluted into 450 μL of a solution of 0.19% (w/v) orcinol in 50% (v/v) concentrated H2SO4 (or 20 μL extract into 480 μL orcinol solution for cultures grown in MOPS Glucose medium). The tubes were vortexed thoroughly to mix and incubated in an 80° C. heating block for 30 min. After briefly cooling to room temperature, 200 μL of the resulting yellow to yellow-orange solution was transferred to a clear 96-well microtiter plate, and the absorbance at 421 nm measured. Media background absorbance (measured from a “no bacteria” control) was subtracted, the resulting values growth normalized by dividing by the final OD600, and the data plotted relative to a DMSO-treated positive control. C. Elastase B Assay Protocol. The amount of elastase B in P. aeruginosa culture supernatants was measured following a reported protocol (Geske et al., 2007) with modifications. Assay cultures were prepared and grown in an identical manner to the pyocyanin assay above. Aliquots of the final culture supernatant (50 μL) were added to the wells of a clear, plastic 96-well plate. To each well, 150 μL of 0.5% (w/v) elastin-congo red conjugate (Elastin Products Co.) in Tris buffer (10 mM Tris-HCl, 1 mM CaCl2, pH 7.2) was added. The plate was sealed with a polypropylene storage mat (Costar 3080) and incubated in a 37° C. shaking incubator (200 rpm) attached to a Labquake rotator for 12 h (for experiments in SCFM2) or 24 h (for experiments in MOPS medium). To quantify elastase B activity, the undigested elastin was pelleted by centrifugation of the assay plate at 1,500 g for 10 min, after which 100 μL of the supernatant was transferred to a new, clear 96-well plate, and the absorbance at 490 nm measured. Media background absorbance (measured from a “no bacteria” control) was subtracted, the resulting values growth normalized by dividing by the final OD600, and the data plotted relative to a DMSO-treated positive control.

LasR = molecular target: T2, LasR (Pseudomonas aeruginosa, UniProt P25084); assay: E. coli reporter gene primary agonism assay, LasR; type: cell-based; conditions: compounds at 100 mm; E. coli reporter strain JLD271/pJN105L/pSC11; 100 mm OdDHL = 100%; error ±10%
T2 construct: expressed in transfected cells; host or cells: E. coli JLD271
Description: as §1

T2 sequence (P25084 whole entry): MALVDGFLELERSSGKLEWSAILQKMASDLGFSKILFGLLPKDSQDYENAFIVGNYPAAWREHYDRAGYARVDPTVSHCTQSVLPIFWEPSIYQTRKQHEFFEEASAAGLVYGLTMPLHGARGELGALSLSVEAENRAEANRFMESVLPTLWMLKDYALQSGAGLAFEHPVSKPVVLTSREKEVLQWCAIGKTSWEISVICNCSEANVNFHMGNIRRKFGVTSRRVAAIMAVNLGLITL
T1 sequence (P54292 whole entry): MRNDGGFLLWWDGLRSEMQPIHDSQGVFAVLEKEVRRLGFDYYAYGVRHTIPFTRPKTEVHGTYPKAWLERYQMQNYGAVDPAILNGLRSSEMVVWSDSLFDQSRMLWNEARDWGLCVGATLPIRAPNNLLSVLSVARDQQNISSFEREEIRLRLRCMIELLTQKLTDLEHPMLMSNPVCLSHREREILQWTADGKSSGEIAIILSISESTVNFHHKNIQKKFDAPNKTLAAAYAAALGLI

O=C(N[C@H]1CCOC1=O)C1CCCC1 [compound 3]
Activation [%] RhlR (RhlR): 91%
pyocyanin production, single compound screens (P. aeruginosa (PAO1)): blocked pyocyanin production under nearly all of the environmental conditions tested
Activation [%] LasR (LasR): −4%
